Results as given in paper PMC8026774 (Cellular and molecular neurobiology, 2020).

Tests used:
Assay in all cases: radioligand saturation binding, CHO membranes
MOR-TR-PK = MOR-TR-PK (Mus musculus, UniProt P42866, DEL387-398)
MOR-1 (untagged) = MOR-1 (untagged) (Mus musculus, UniProt P42866)
MOR-1O (untagged) = MOR-1O (untagged) (Mus musculus, UniProt P42866)
MOR-1O-PK = MOR-1O-PK (Mus musculus, UniProt P42866)
MOR-1-PK = MOR-1-PK (Mus musculus, UniProt P42866)

O=C(N[C@@H]1CC[C@@]2(O)[C@H]3Cc4ccc(O)c5c4[C@@]2(CCN3CC2CC2)[C@H]1O5)c1cccc(I)c1 [[^125I]IBNtxA]
Kd (MOR-TR-PK): 0.1 ± 0.02 nM
Kd (MOR-1 (untagged)): 0.13 ± 0.03 nM
Kd (MOR-1O (untagged)): 0.2 ± 0.07 nM
Kd (MOR-1O-PK): 0.24 ± 0.11 nM
Kd (MOR-1-PK): 0.1 ± 0.01 nM
